Assay results taken from US20260232774A1, “COMPOSITIONS AND METHODS FOR TREATING INTESTINAL MICROBIOME DYSBIOSIS” (The Regents of the University of Michigan, priority 2023, published 2026).

Tested on: GVHD in GF B6 BMT recipients
Settings: mouse, in vivo
Text: (A) The details of the experimental design were shown in FIG. 12G to L. Quantification of iron in stool from colon and ileum in Allo B6 and Allo B6 deferasirox at 7 day and 21 day after BMT were shown (Day7, N=2, Day21, Vehicle: N=4, Deferasirox: N=2). (B) The percent of IFNγ+CD4, IFNγ+CD8, and Treg cells in spleen from recipients at day7 after BMT were shown (N=4). (C) The cytokine levels of IFNγ, TNFα, and IL17A in serum from recipients at day7 after BMT were shown (Vehicle: N=3, Deferasirox: N=4). (D to F) GF mice received BMT from BALB/c donor mice. BMT recipients were orally treated with deferasirox (20 mg/kg) and vehicle every day. (D) Hypoxyprobe staining and relative fluorescent intensity in colon from recipients 21 days after BMT (scale bar=50 μm). Three independent experiments were performed. Survival rate (E) and clinical GVHD score (F) of BMT recipients (Syn GF vehicle: N=2, Syn GF deferasirox: N=2, Allo GF vehicle: N=8, Allo GF deferasirox: N=10). The horizontal line in box (C) represents the median with the box bounding the interquartile range. The ends of the whisker lines represent the minimum and maximum values. […]
Because alteration of O2 affects host IECs in addition to the microbiome, we next determined whether restoring intestinal hypoxia by Fe chelation after allo-HSCT mitigated GVHD independent of its impact on dysbiosis. […]

For `O=C(O)c1ccc(-n2nc(-c3ccccc3O)nc2-c2ccccc2O)cc1` [deferasirox], the “survival and GVHD of syngeneic GF mice” value was “survived without GVHD”.
